{"source": "patent US20170182040A1", "about": "“EPITHELIAL ION CHANNEL (ENAC) BLOCKERS TO TREAT PSORIASIS” (The Board of Trustees of the Leland Stanford Junior …, priority 2014, published 2017)", "test_system": "K14 Rac1 animal model for psoriasis", "assay": "K14 V12 Rac1 mouse model of psoriasis, IP treatment", "format": "in vivo", "conditions": "IP 10 mg/kg every other day, 20 treatments", "description": "FIG. 1: IP treatment with benzamil ameliorates phenotype in a mouse model of psoriasis. […] (c) IP efficacy was dose-dependent (2.1-1.4-0.7 mg/kg 20 treatments) and distinct from another ENAC blocker Amiloride (10 mg/kg).\nFIG. 4: Benzamil alter Rac/STAT3 signaling, has effect on human psoriatic keratinocytes. […] Effects on Rac1 and PSTAT3 by Benzamil (10 uM) were validated in human primary psoriatic keratinocytes (Rac1-green, PSTAT3-red, DNA-blue) (b).\nMice overexpressing a K14 driven hyperactive V12 Rac1 mutant display clinical-histologic features mimicking human psoriasis including hyperkeratosis, erythema, Koebnerization, Auspitz sign, arthritis, onychodystrophy, marked psoriasiform hyperplasia, parakeratosis, Munro microabcesses, dilated rete ridge blood vessels and characteristic immune infiltrates. Rac1 mouse and human psoriasis skin show similar epidermal thickness, suprabasilar Ki67, and increased expression of IL 1, 6, 17, 23, 36/CCL 2, 5, 17, 20/TNFα/TGFα/CARD14/IFIH1/IRFs, NFKB, STAT3 activation/β defensins/Act1/IL17R. Transcriptional comparison of psoriasis susceptibility genes in Rac1 mouse and human psoriatic skin show marked overlap of both epidermal and immune pathways. […] See, for example Winge et al. Journal of Investigative Dermatology (2014) 134, S9-S27.\nBenzamil attenuates Rac1-mediated psoriasis in a mouse model. In a K14 Rac1 animal model for psoriasis, Benzamil was injected ip every other day for 0, 10 and 20 injections of (2 mg/kg), or PBS.\nIn psoriasis keratinocytes, cytokine-mediated nuclear translocation of PSTAT3 and NFκB is reduced following Benzamil treatment."}
{"smiles": "N=C(N)NC(=O)c1nc(Cl)c(N)nc1N", "note": "[Amiloride, amiloride]", "values": [{"measurement": "Edema", "value": "reduced"}, {"measurement": "Overall effect of IP treatment", "value": "Little or no effect"}, {"measurement": "Psoriasiform hyperplasia (histology)", "value": "retained"}, {"measurement": "Rac1 activation, ki67 and TGFα expression and immune cell infiltration (CD3+/cd11c+)", "value": "high"}, {"measurement": "Scaling", "value": "did not have distinct effect"}]}
